Patent US20250034149A1, “DIHYDROPYRROLO[3,4C]-PYRAZOLE DERIVATIVES AND THEIR USE IN DIAGNOSIS” (AC IMMUNE SA, priority 2021, published 2025)
Structures can show the parent of a compound that is named as a salt.

Biological target: T1, PD brain-derived alpha-synuclein aggregates (Homo sapiens, UniProt P37840)
T1 construct: from tissue; host or cells: human PD donor brain tissue, sarkosyl-insoluble fraction
Test: Micro-radiobinding competition assay for the determination of binding affinity
Settings: for Ki: compound concentrations 0.05 nM to 2 μM, nonlinear regression, one site model
Method: The procedure was adapted from the protocol described in Spillantini et al., 1998. Frozen tissue blocks from PD donors were thawed on ice and homogenized using a glass dounce homogenizer. The homogenate was then centrifuged at 11,000×g (12,700 RPM) in an ultracentrifuge (Beckman, XL100K) for 20 minutes at 4° C. using a pre-cooled 70.1 rotor (Beckman, 342184). Pellets were resuspended in extraction buffer [10 mM Tris —HCl PH 7.4, 10% sucrose, 0.85 mM NaCl, 1% protease inhibitor (Calbiochem 539131), 1 mM EGTA, 1% phosphatase inhibitor (Sigma P5726 and P0044)] and centrifuged at 15,000×g (14,800 RPM, a 70.1 Ti rotor) for 20 minutes at 4° C. Pellets were discarded and sarkosyl (20% stock solution, Sigma L7414) was added to the supernatants to a final concentration of 1% at room temperature for one hour. This solution was then centrifuged at 100,000×g (38,000 RPM, 70.1 Ti rotor) for one hour at 4° C. Pellets containing enriched alpha-synuclein aggregates were resuspended in PBS and stored at −80° C. until use.
PD brain-derived alpha-synuclein aggregates were spotted onto microarray slides. The slides were incubated with tritiated reference alpha-synuclein ligand at 6 nM, 20 nM or 30 nM and the example compounds (non-radiolabelled) at 1 μM and 100 nM. In some cases, the non-radiolabelled example compounds were further assessed for a range of different concentrations, varying from 0.05 nM to 2 μM. After incubation, slides were washed and scanned by a real-time autoradiography system (BeaQuant, ai4R). Quantification of the signal was performed by using the Beamage image analysis software (ai4R). Non-specific signal was determined with an excess of non-radiolabelled reference alpha-synuclein ligand (2 μM) and specific binding was calculated by subtracting the non-specific signal from the total signal. Competition was calculated as percent, where 0% was defined as the specific binding in the presence of vehicle and 100% as the values obtained in the presence of excess of the non-radiolabelled reference alpha-synuclein ligand. Ki values were calculated in GraphPad Prism7 by applying a nonlinear regression curve fit using a one site, specific binding model. All measurements were performed with at least two technical replicates. For compounds tested in more than one experiment, the mean of the replicates or Ki values in independent experiments is reported.
Results: Example compounds were assessed for their potency to compete with the binding of a tritiated reference alpha-synuclein ligand to PD patient brain-derived alpha-synuclein aggregates. Results of the micro-radiobinding competition assay for the example compounds tested are shown in Table 2 as: % competition at 1 μM and 100 nM.

[1] = 100 nM non-radiolabelled example compound, competition over tritiated reference alpha-synuclein ligand (6 nM, 20 nM or 30 nM)
[2] = 1 μM non-radiolabelled example compound, competition over tritiated reference alpha-synuclein ligand (6 nM, 20 nM or 30 nM)

Row | Structure (SMILES) | inhibition at 0.1 µM [1] [%] | inhibition at 1 µM [2] [%] | Ki [nM] | Micro-radiobinding competition assay Competition at 100 nM (%) [1] [%] | Micro-radiobinding competition assay Competition at 1 μM (%) (1 μM non-radiolabelled example compound, competition over tritiated reference alpha-synuclein ligand (6 nM, 20 nM or 30 nM), hydrochloride)
1 | O=C1c2nn(-c3ccc(OCCF)nc3)cc2CN1c1cccnc1 [Example 17, 2-(6-(2-fluoroethoxy)pyridin-3-yl)-5-(pyridin-3-yl)-4,5-dihydropyrrolo[3,4-c]pyrazol-6 (2H)-one] | 31 | 63 | 214 | – | –
2 | Cn1cc(N2Cc3cn(-c4ccc(N5CC[C@@H](F)C5)nc4)nc3C2=O)cn1 [Example 5, 2-{6-[(3R)-3-fluoropyrrolidin-1-yl]pyridin-3-yl}-5-(1-methyl-1H-pyrazol-4-yl)-2H,4H,5H,6H-pyrrolo[3,4-c]pyrazol-6-one] | 74 | 101 | – | – | –
3 | Cn1cc(N2Cc3cn(-c4ccc(N5CCCC(F)CC5)nc4)nc3C2=O)cn1 (centres unmarked) [Example 14, 2-(6-(4-fluoroazepan-1-yl)pyridin-3-yl)-5-(1-methyl-1H-pyrazol-4-yl)-4,5-dihydropyrrolo[3,4-c]pyrazol-6(2H)-one hydrochloride] | 0 | 66 | – | – | –
4 | O=C1c2nn(-c3ccc(N4CC[C@H](F)C4)nc3)cc2CN1c1cccnc1 [Example 2, 2-{6-[(3S)-3-fluoropyrrolidin-1-yl]pyridin-3-yl}-5-(pyridin-3-yl)-2H,4H,5H,6H-pyrrolo[3,4-c]pyrazol-6-one] | 34 | 80 | 115 | – | –
5 | Cn1cc(N2Cc3cn(-c4ccc(N5CC(F)C5)nc4)nc3C2=O)cn1 [Example 3, 2-(6-(3-fluoroazetidin-1-yl)pyridin-3-yl)-5-(1-methyl-1H-pyrazol-4-yl)-4,5-dihydropyrrolo[3,4-c]pyrazol-6(2H)-one] | 38 | 89 | 54 | – | –
6 | O=C1c2nn(-c3ccc(OCCF)nc3)cc2CN1c1cncs1 [Example 19, 2-(6-(2-fluoroethoxy)pyridin-3-yl)-5-(thiazol-5-yl)-4,5-dihydropyrrolo [3,4-c]pyrazol-6(2H)-one] | 46 | 78 | 86 | – | –
7 | O=C1c2nn(-c3ccc(N4CC[C@@H](F)C4)nc3)cc2CN1c1cccnc1 [Example 1, 2-{6-[(3R)-3-fluoropyrrolidin-1-yl]pyridin-3-yl}-5-(pyridin-3-yl)-2H,4H,5H,6H-pyrrolo[3,4-c]pyrazol-6-one] | 58 | 86 | 84 | – | –
8 | Cc1ncc(N2Cc3cn(-c4ccc(N5CC[C@H](F)C5)nc4)nc3C2=O)s1 [Example 16, (S)-2-(6-(3-fluoropyrrolidin-1-yl)pyridin-3-yl)-5-(2-methylthiazol-5-yl)-4,5-dihydropyrrolo[3,4-c]pyrazol-6(2H)-one] | 69 | 90 | 40 | – | –
9 | Cc1ccc(N2Cc3cn(-c4ccc(N5CC[C@H](F)C5)nc4)nc3C2=O)cn1 [Example 9, 2-{6-[(3S)-3-fluoropyrrolidin-1-yl]pyridin-3-yl}-5-(6-methylpyridin-3-yl)-2H,4H,5H,6H-pyrrolo[3,4-c]pyrazol-6-one] | 37 | 87 | – | – | –
10 | O=C1c2nn(-c3ccc(N4CC[C@H](F)C4)nc3)cc2CN1c1cncs1 [Example 11, 2-{6-[(3S)-3-fluoropyrrolidin-1-yl]pyridin-3-yl}-5-(1,3-thiazol-5-yl)-2H,4H,5H,6H-pyrrolo[3,4-c]pyrazol-6-one] | 41 | 90 | – | – | –
11 | Cc1ccc(N2Cc3cn(-c4ccc(N5CCC(F)C5)nc4)nc3C2=O)cn1 (stereo in doubt) [Example 13, 2-{6-[(3S)-3-fluoropyrrolidin-1-yl]pyridin-3-yl}-5-(6-methylpyridin-3-yl)-2H,4H,5H,6H-pyrrolo[3,4-c]pyrazol-6-one hydrochloride] | – | – | – | 37 | 87
12 | Cc1ncc(N2Cc3cn(-c4ccc(OCCF)nc4)nc3C2=O)s1 [Example 20, 2-(6-(2-fluoroethoxy)pyridin-3-yl)-5-(2-methylthiazol-5-yl)-4,5-dihydro-pyrrolo[3,4-c]pyrazol-6(2H)-one] | 55 | 86 | – | – | –
13 | O=C1c2nn(-c3ccc(N4CC[C@@H](F)C4)nc3)cc2CN1c1cncs1 [Example 12, 2-{6-[(3R)-3-fluoropyrrolidin-1-yl]pyridin-3-yl}-5-(1,3-thiazol-5-yl)-2H,4H,5H,6H-pyrrolo[3,4-c]pyrazol-6-one] | 64 | 94 | 52 | – | –
14 | COc1cncc(N2Cc3cn(-c4ccc(N5CC[C@H](F)C5)nc4)nc3C2=O)c1 [Example 6, 2-{6-[(3S)-3-fluoropyrrolidin-1-yl]pyridin-3-yl}-5-(5-methoxypyridin-3-yl)-2H,4H,5H,6H-pyrrolo[3,4-c]pyrazol-6-one] | 26 | 60 | – | – | –
15 | Cc1ncc(N2Cc3cn(-c4ccc(N5CC[C@@H](F)C5)nc4)nc3C2=O)s1 [Example 15, (R)-2-(6-(3-fluoropyrrolidin-1-yl)pyridin-3-yl)-5-(2-methylthiazol-5-yl)-4,5-dihydropyrrolo[3,4-c]pyrazol-6(2H)-one] | 71 | 92 | – | – | –
16 | Cn1cc(N2Cc3cn(-c4ccc(OCCF)nc4)nc3C2=O)cn1 [Example 18, 2-(6-(2-fluoroethoxy)pyridin-3-yl)-5-(1-methyl-1H-pyrazol-4-yl)-4,5-dihydropyrrolo[3,4-c]pyrazol-6(2H)-one] | 54 | 81 | 78 | – | –
17 | Cn1cc(N2Cc3cn(-c4ccc(N5CC[C@H](F)C5)nc4)nc3C2=O)cn1 [Example 4, 2-{6-[(3S)-3-fluoropyrrolidin-1-yl]pyridin-3-yl}-5-(1-methyl-1H-pyrazol-4-yl)-2H,4H,5H,6H-pyrrolo[3,4-c]pyrazol-6-one] | 28 | 75 | – | – | –
18 | O=C1c2nn(-c3ccc(N4CC[C@@H](F)C4)nc3)nc2CN1c1cccnc1 [Example 10, 2-{6-[(3R)-3-fluoropyrrolidin-1-yl]pyridin-3-yl}-5-(pyridin-3-yl)-2H,4H,5H,6H-pyrrolo[3,4-d][1,2,3]triazol-4-one] | 74 | 97 | 30 | – | –
19 | COc1cncc(N2Cc3cn(-c4ccc(N5CC[C@@H](F)C5)nc4)nc3C2=O)c1 [Example 7, 2-{6-[(3R)-3-fluoropyrrolidin-1-yl]pyridin-3-yl}-5-(5-methoxypyridin-3-yl)-2H,4H,5H,6H-pyrrolo[3,4-c]pyrazol-6-one] | 10 | 52 | – | – | –
20 | Cc1ccc(N2Cc3cn(-c4ccc(N5CC[C@@H](F)C5)nc4)nc3C2=O)cn1 [Example 8, 2-{6-[(3R)-3-fluoropyrrolidin-1-yl]pyridin-3-yl}-5-(6-methylpyridin-3-yl)-2H,4H,5H,6H-pyrrolo[3,4-c]pyrazol-6-one] | 37 | 71 | 226 | – | –
